Assay results reported in US5525627A, “Esters of acyl carnitines with long-chain aliphatic alcohols and pharmaceutical compositions containing same having antimycotic activity” (Sigma-Tau Industrie Farmaceutiche Riunite S.p.A., priority 1992, dated 1996).

Columns and labels:
Fusarium sp. (ISS 1) = experiment: MIC for filamentous fungi; type: cell-based; details: read-out: Minimal Inhibitory Concentration (MIC)
From the text: (§1) The following strains were used (the number of strains is in brackets): Aspergillus (5); Fusarium (1); Mucor (1); Penicillium (1).
(§2) The tested substances were: ST 712, ST 722, ST 982, ST 983, ST 1000, ST 1001, ST 1032, ST 1033, ST 1034, ST 1036, ST 1037, ST 1038, ST 1050, ST 1051, ST 1052, ST 1053. The assay medium was the same as the one used in the previous study. The conidia from 72-hour cultures in Sabouraud agar, collected by washing with Sabouraud medium and Tween 80 (one drop of Tween per 10 ml of medium), were utilized as inoculum (5.0×10^4 CFU/ml).
(§3) The assay was performed using the same procedure as described for yeast-like fungi.
(§4) Also the evaluation of MIC and MFC was as reported previously.

[1] = system: Aspergillus niger (ATCC 16404); experiment: MIC for filamentous fungi; type: cell-based; details: ATCC16404, read-out: Minimal Inhibitory Concentration (MIC)
From the text: as §1, §2, §3, §4

[2] = system: Aspergillus fumigatus (C/1); experiment: MIC for filamentous fungi; type: cell-based; details: read-out: Minimal Inhibitory Concentration (MIC)
From the text: as §1, §2, §3, §4

Mucor mucedo (ATCC 7941) = experiment: MIC for filamentous fungi; type: cell-based; details: ATCC7941, read-out: Minimal Inhibitory Concentration (MIC)
From the text: as §1, §2, §3, §4

[3] = system: Aspergillus fumigatus (1/A); experiment: MIC for filamentous fungi; type: cell-based; details: read-out: Minimal Inhibitory Concentration (MIC)
From the text: as §1, §2, §3, §4

[4] = system: Aspergillus fumigatus (ATCC 28212); experiment: MIC for filamentous fungi; type: cell-based; details: ATCC28212, read-out: Minimal Inhibitory Concentration (MIC)
From the text: as §1, §2, §3, §4

[5] = system: Aspergillus fumigatus (2/A); experiment: MIC for filamentous fungi; type: cell-based; details: read-out: Minimal Inhibitory Concentration (MIC)
From the text: as §1, §2, §3, §4

Penicillium sp. (1302) = experiment: MIC for filamentous fungi; type: cell-based; details: read-out: Minimal Inhibitory Concentration (MIC)
From the text: as §1, §2, §3, §4

dermatophytic fungi = experiment: MIC / MFC for dermatophytic fungi, all strains; type: cell-based, Trichophyton, Microsporum, Epidermophyton; details: versus susceptible strains
Experimental: (§5) The following strains were used: Trichophyton menthagrophytes ATCC 9533, Trichophyton rubrum IHEM 4274, Microsporum canis IHEM 3522, Epydermophyton floccosum IHEM 3495. The tested substances were: ST 722, ST 1033, ST 1037, ST 1050, ST 1051, ST 1052,. ST 1053.
(§6) The assay was performed following the same procedure described for the yeasts, by using 7-day fungi cultures grown at 30° C. in Potato Dextrose agar, and harvested with Sabouraud broth and Tween 80 (0.5%).
(§7) After washing with Yeast Nitrogen Base, supplemented with asparagine and glucose (as carbon source), the fungal suspension was fragmented using a tissue grinder until the largest clumps or aggregates were undetectable within the grinder. This fungal suspension was then appropriately diluted in YNB to yield a concentration of 2.0×10^5 infective particles/ml (small mycelium fragments, micro-and macroaleuriospores).
(§8) Volumes of 100 μl both of the fungal suspensions and substance solutions, two-fold serially diluted in assay medium, were distributed into each well of a microtiter plate (96 wells, round bottom), which was incubated at 35° C. for 96 hours.

Candida albicans (ISS 1) = experiment: MIC for yeast and yeast-like strains; type: cell-based; details: 48 hours, 35° C., read-out: Minimal Inhibitory Concentration (MIC)
Experimental: (§9) The following strains were used (the number of strains is in brackets): Candida (13); Criptococcus (2); Saccharormyces (1); Torulopsis (1).
(§10) Yeast Nitrogen Base supplemented with 0.15% asparagine and 1.0% glucose (as carbon source) was the medium utilized in the assays.
(§11) This medium was buffered with 0.165 M 2-(N-morpholino) propane sulfonic acid (MOPS), a non-chelating buffer.
(§12) Antimicrob. Agents Cheroother. Aug. 34.8:1542-1545).
(§13) The inoculum was prepared from an overnight broth culture (a 48-hour culture only for Cryptococcus) in Sabouraud broth and appropriately diluted to yield a final suspension containing approximately 5.0×10^6 Colony Forming Units per ml (CFU/ml), when compared to the Mc Farland's standard control (BRAY W. E., Clinical Laboratory Methods, 5th Ed. C. V. MOSBY, St. Louis, Mo, 1957).
(§14) After further diluting (1:50), a […] volume of such fungal suspensions and an equal volume of the substance solutions were distributed into each well of a microtiter plate (96 wells, round bottom). Such a procedure eventually allowed for an "in vitro" antimycotic activity assay utilizing final fungal inocula of approximately 5.0×10^4 CFU/ml.

[6] = system: Cryptococcus neoformans (ISS 1); experiment: MIC for yeast and yeast-like strains; type: cell-based; details: 48 hours, 35° C., read-out: Minimal Inhibitory Concentration (MIC)
Experimental: as §9, §10, §11, §12, §13, §14

[7] = system: Candida pseudotropicalis (EC 1); experiment: MIC for yeast and yeast-like strains; type: cell-based; details: Kluyveromyces marxianus; 48 hours, 35° C.; read-out: Minimal Inhibitory Concentration (MIC)
Experimental: as §9, §10, §11, §12, §13, §14

Candida glabrata (ISS 1) = experiment: MIC for yeast and yeast-like strains; type: cell-based; details: Nakaseomyces glabratus; 48 hours, 35° C.; read-out: Minimal Inhibitory Concentration (MIC)
Experimental: as §9, §10, §11, §12, §13, §14

[8] = system: Candida albicans (ATCC 2091); experiment: MIC for yeast and yeast-like strains; type: cell-based; details: ATCC2091, 48 hours, 35° C., read-out: Minimal Inhibitory Concentration (MIC)
Experimental: as §9, §10, §11, §12, §13, §14

[9] = system: Candida parapsilosis (ISS 1); experiment: MIC for yeast and yeast-like strains; type: cell-based; details: Lodderomyces parapsilosis; 48 hours, 35° C.; read-out: Minimal Inhibitory Concentration (MIC)
Experimental: as §9, §10, §11, §12, §13, §14

[10] = system: Candida tropicalis (ISS 1); experiment: MIC for yeast and yeast-like strains; type: cell-based; details: 48 hours, 35° C., read-out: Minimal Inhibitory Concentration (MIC)
Experimental: as §9, §10, §11, §12, §13, §14

[11] = system: Candida guilliermondii (ISS 1); experiment: MIC for yeast and yeast-like strains; type: cell-based; details: Meyerozyma guilliermondii; 48 hours, 35° C.; read-out: Minimal Inhibitory Concentration (MIC)
Experimental: as §9, §10, §11, §12, §13, §14

Candida albicans (PG) = experiment: MIC and MFC for yeast and yeast-like strains; type: cell-based; details: 48 hours, 35° C., read-out: Minimal Inhibitory Concentration (MIC)
Experimental: as §9, §10, §11, §12, §13, §14
(§15) The minimal fungicidal concentration was evaluated by spot-transferring onto Petri dishes, containing Sabouraud agar, 0.01-ml volumes of all the samples showing no visible fungal growth.

yeast-like fungi = experiment: MIC / MFC for yeast-like fungi, all strains; type: cell-based, Candida, Cryptococcus, Saccharomyces, Torulopsis; details: versus susceptible strains; read-out: Mean MIC values
Experimental: as §9, §10
(§16) This medium was buffered with 0.165 M 2-(N-morpholino) propane sulfonic acid (MOPS), a non-chelating buffer. […]
as §13, §14, §15

Candida albicans (Ca 2) = experiment: MIC for yeast and yeast-like strains; type: cell-based; details: 48 hours, 35° C., read-out: Minimal Inhibitory Concentration (MIC)
Experimental: as §9, §10, §16, §13, §14

Candida albicans (A 54) = experiment: MIC for yeast and yeast-like strains; type: cell-based; details: 48 hours, 35° C., read-out: Minimal Inhibitory Concentration (MIC)
Experimental: as §9, §10, §16, §13, §14

Candida albicans (562) = experiment: MIC for yeast and yeast-like strains; type: cell-based; details: 48 hours, 35° C., read-out: Minimal Inhibitory Concentration (MIC)
Experimental: as §9, §10, §16, §13, §14

Candida krusei (ISS 1) = experiment: MIC for yeast and yeast-like strains; type: cell-based; details: Pichia kudriavzevii; 48 hours, 35° C.; read-out: Minimal Inhibitory Concentration (MIC)
Experimental: as §9, §10, §16, §13, §14

[12] = system: Torulopsis candida (D.S.); experiment: MIC for yeast and yeast-like strains; type: cell-based; details: Suzukiozyma candida; 48 hours, 35° C.; read-out: Minimal Inhibitory Concentration (MIC)
Experimental: as §9, §10, §16, §13, §14

[13] = system: Cryptococcus neoformans (4711); experiment: MIC for yeast and yeast-like strains; type: cell-based; details: 48 hours, 35° C., read-out: Minimal Inhibitory Concentration (MIC)
Experimental: as §9, §10, §16, §13, §14

[14] = system: Saccharomyces cerevisiae (ATCC 7752); experiment: MIC for yeast and yeast-like strains; type: cell-based; details: ATCC7752, 48 hours, 35° C., read-out: Minimal Inhibitory Concentration (MIC)
Experimental: as §9, §10, §16, §13, §14

[15] = system: Candida tropicalis (5705); experiment: MIC for yeast and yeast-like strains; type: cell-based; details: 48 hours, 35° C., read-out: Minimal Inhibitory Concentration (MIC)
Experimental: as §9, §10, §16, §13, §14

[16] = system: Trichophyton menthagrophites (ATCC 9533); experiment: MIC for dermatophytic fungi; type: cell-based; details: ATCC9533, 35° C., 96 hours, read-out: Minimal Inhibitory Concentration (MIC)
Experimental: as §5, §6, §7, §8

[17] = system: Microsporum canis (IHEM 3522); experiment: MIC for dermatophytic fungi; type: cell-based; details: 35° C., 96 hours, read-out: Minimal Inhibitory Concentration (MIC)
Experimental: as §5, §6, §7, §8

[18] = system: Epidermophyton floccosum (IHEM 3495); experiment: MIC for dermatophytic fungi; type: cell-based; details: 35° C., 96 hours, read-out: Minimal Inhibitory Concentration (MIC)
Experimental: as §5, §6, §7, §8

[19] = system: Trichophyton rubrum (IHEM 4274); experiment: MIC for dermatophytic fungi; type: cell-based; details: 35° C., 96 hours, read-out: Minimal Inhibitory Concentration (MIC)
Experimental: as §5, §6, §7, §8

filamentous fungi = experiment: MIC / MFC for filamentous fungi, all strains; type: cell-based, Aspergillus, Fusarium, Mucor, Penicillium; details: versus susceptible strains; read-out: Mean MIC values
From the text: as §1, §2, §3, §4

SMILES	MIC (Fusarium sp. (ISS 1)) [µg/mL]	MIC [1] [µg/mL]	MIC [2] [µg/mL]	MIC (Mucor mucedo (ATCC 7941)) [µg/mL]	MIC [3] [µg/mL]	MIC [4] [µg/mL]	MIC [5] [µg/mL]	MIC (Penicillium sp. (1302)) [µg/mL]	MIC (dermatophytic fungi) [µg/mL]	MIC (Candida albicans (ISS 1)) [µg/mL]	MIC [6] [µg/mL]	MIC [7] [µg/mL]	MIC (Candida glabrata (ISS 1)) [µg/mL]	MIC [8] [µg/mL]	MIC [9] [µg/mL]	MIC [10] [µg/mL]	MIC [11] [µg/mL]	MIC (Candida albicans (PG)) [µg/mL]	MIC (yeast-like fungi) [µg/mL]	MIC (Candida albicans (A 54)) [µg/mL]	further results
CCCCCCCCCCCCOC(=O)C[C@H](C[N+](C)(C)C)OC(=O)CC(C)C [ST 1037]	3.12	6.25	6.25	12.5	6.25	6.25	6.25	6.25	14.1	3.12	1.56	6.25	3.12	1.56	3.12	3.12	6.25	3.12	2.8	1.56	MIC (Candida albicans (Ca 2)): 1.56 µg/mL; MIC (Candida albicans (562)): 1.56 µg/mL; MIC (Candida krusei (ISS 1)): 1.56 µg/mL; MIC [12]: 3.12 µg/mL; MIC [13]: 0.78 µg/mL; MIC [14]: 3.12 µg/mL; MIC [15]: 3.12 µg/mL; MIC [16]: 12.5 µg/mL; MIC [17]: 12.5 µg/mL; MIC [18]: 25 µg/mL; MIC [19]: 6.25 µg/mL; MIC (filamentous fungi): 6.64 µg/mL
CCCCCCCCCCCCCOC(=O)C[C@H](C[N+](C)(C)C)OC(=O)CC(C)C [ST 1033]	3.12	6.25	3.12	6.25	3.12	3.12	3.12	3.12	12.5	1.56	1.56	3.12	3.12	3.12	3.12	3.12	6.25	3.12	2.7	1.56	MIC (Candida albicans (562)): 1.56 µg/mL; MIC (Candida krusei (ISS 1)): 3.12 µg/mL; MIC [12]: 3.12 µg/mL; MIC [13]: 0.78 µg/mL; MIC [14]: 3.12 µg/mL; MIC [15]: 3.12 µg/mL; MIC [16]: 12.5 µg/mL; MIC [17]: 6.25 µg/mL; MIC [18]: 25 µg/mL; MIC [19]: 6.25 µg/mL; MIC (filamentous fungi): 3.9 µg/mL
